Assay results reported in patent US6579893B1, “Use of troglitazone and related compounds for the treatment of cancer” (Board of Regents, The University of Texas System, priority 1997, dated 2003).

Key:
porcine granulosa cells [1] = experiment: Progesterone production by cultured porcine granulosa cells; type: cell-based; conditions: for suppression of progesterone production, dose-response: serum-free medium, varying concentrations, 24 h (FIG. 1)
Excerpt: FlG. 1. Dose-response of progesterone production suppression in porcine granulosa cells treated with Troglitazone and related thiazolidinedione compounds. […] . […] Progesterone concentrations were corrected for DNA content in treated cells and are presented as a percentage of basal corrected progesterone production.
FIG. 2. Time course of Troglitazone suppression of progesterone production by porcine granulosa cells. […] .
FIG. 4. Effects of 25-OH cholesterol on Troglitazone suppression of porcine granulosa cell progesterone production. […] .
Initial studies investigated the dose-response of Troglitazone and related compounds on progesterone production in cultures of porcine granulosa cells. Porcine granulosa cells were isolated from 1- to 5-mm follicles of ovaries from immature swine (60-70 kg) obtained from a local slaughterhouse (Urban et al. 1994). The cells were plated in Eagle's minimum essential medium and 3% fetal calf serum (FCS) at a concentration of 20-30 million cells 60-mm dish for 12-16 h to facilitate granulosa cell attachment to the plates. Monolayer cultures were maintained at 37° C. in 5% CO2 throughout the study. After granulosa cell attachment, medium containing the FCS was discarded and serum-free medium with varying concentrations of Troglitazone, pioglitazone and BRL 49653 was added for 24 h. One ml of medium was collected for measurement of progesterone by an assay previously described that uses the chromatographic separation of steroids to enhance specificity (Urban et al. 1994). […] . The time course for the suppression of progesterone was done in the same porcine granulosa cell culture system. […] . The suppression of progesterone production in porcine granulosa cells by Troglitazone could be due to effects of the drug on the supply of cholesterol to the mitochondria. Before investigating proteins in the pathway of cholesterol transport to the mitochondria, it was first tested whether Troglitazone would inhibit progesterone production when cells were co-treated with 25-OH cholesterol. This compound diffuses directly to the P-450 cholesterol side-chain cleavage enzyme (P-450scc) in the mitochondria and acts as a substrate for progesterone production (Veldhuis and Furlanetto, 1985). […] .

PPARγ [2] = experiment: EMSA of porcine granulosa cell nuclear extract with consensus PPRE (DR-1) oligonucleotide; type: cell-based; conditions: 15 μg nuclear extract protein, EMSA (FIG. 6)
Excerpt: The nuclear extract was mixed with radioactively-labeled consensus PPRE as described in FIG. 6.

NWTb3 cells = experiment: Cell viability of NWTb3 cells (MTT to formazan); conditions: NWTb3, 4 days, MTT (FIG. 11)
Experimental: FIG. 11. […] Cells were grown in 24 well-plates with high-glucose MEM 10% FCS. Cell viability was assessed by the conversion of MTT to formazan as previously described. Data are the mean ±SEM from 2 studies done in triplicate.

[3] = tested on: polycystic ovary syndrome; conditions: women with PCO, 400 mg every day, cited from earlier work
porcine granulosa cells [4] = experiment: DNA content and total protein of treated porcine granulosa cells; type: cell-based
P450scc = experiment: Northern blot of P450scc mRNA in porcine granulosa cells; type: cell-based; conditions: 5 μg ml, 24 h (FIG. 5)
Excerpt: FIG. 5. Scanned image of Northern blot Troglitazone effects on mRNA concentrations of P450scc.
Suppression of transcription of this enzyme would result in decreased progesterone production by granulosa cells.

MCF-7 cells = experiment: Cell viability of MCF-7 cells (MTT to formazan); conditions: MCF-7 (non-PPARγ expressing), 4 days, MTT (FIG. 13)
Experimental: FIG. 13. […] MCF-7 cells were treated with increasing concentrations of Troglitazone for 4 days and cell viability was assessed by the conversion of MTT to formazan as previously described. Data are the mean ±SEM from 2 studies done in triplicate.
A non-PPARγ expressing human breast cancer cell line, MCF-7 was tested.

HGL5 cells [5] = experiment: Cell viability of HGL5 cells (MTT to formazan); conditions: HGL5, 4 days, MTT (FIG. 9)
Experimental: Cell viability was assessed by the conversion of MTT to formazan as previously described. Data are the mean ±SEM from 2 studies done in triplicate.
A similar assay was used as described above porcine granulosa cells, using MTT instead of MTS for conversion to formazan.

porcine granulosa cells [6] = experiment: Cell viability of porcine granulosa cells (MTS to formazan); type: cell-based; conditions: even at the highest doses, 100 μg ml (FIG. 3)
Experimental: FIG. 3. Cell viability porcine granulosa cells during treatment with Troglitazone. Porcine granulosa cells were treated with various concentrations of Troglitazone and cell viability determined using a MTS dye oxidation method. This method is based on the ability of dehydrogenase enzymes found in metabolically active cells to oxidize MTS to formazan. This compound is soluble in tissue culture medium.
Therefore, cell viability was tested in these cells using a colorimetric assay that is dependent on the oxidation of MTS to formazan (absorbance measured at 490 nm ) by dehydrogenase enzymes found in metabolically active cells (Promega, Madison WI). This assay was verified in porcine granulosa cells by showing a linear increase in absorption with increasing cell density.

HGL5 cells [7] = tested on: HGL5 cells
Excerpt: Progesterone was corrected for protein concentration. The data represent the mean ±SEM from 2 studies done in triplicate.

PPARγ [8] = conditions: cited from earlier work
PPARα = molecular target: T1, PPARα (Homo sapiens, UniProt Q07869); conditions: cited from earlier work
T1 sequence (Q07869 1-468): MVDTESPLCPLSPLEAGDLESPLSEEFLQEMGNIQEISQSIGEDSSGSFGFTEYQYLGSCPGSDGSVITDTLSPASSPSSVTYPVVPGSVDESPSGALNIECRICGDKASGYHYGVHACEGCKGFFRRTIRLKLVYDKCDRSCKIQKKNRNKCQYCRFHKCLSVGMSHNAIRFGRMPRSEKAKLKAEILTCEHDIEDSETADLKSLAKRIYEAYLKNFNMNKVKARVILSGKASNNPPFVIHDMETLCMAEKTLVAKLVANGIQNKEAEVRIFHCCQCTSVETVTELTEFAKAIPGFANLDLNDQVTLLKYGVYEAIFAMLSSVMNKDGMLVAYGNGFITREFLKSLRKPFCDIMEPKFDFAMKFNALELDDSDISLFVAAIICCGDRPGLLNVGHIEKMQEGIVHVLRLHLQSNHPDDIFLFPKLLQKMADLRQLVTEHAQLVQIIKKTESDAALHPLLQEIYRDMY

Q: With `CN(CCOc1ccc(CC2SC(=O)NC2=O)cc1)c1ccccn1` (centres unmarked) [BRL 49653, 5-[4-[2-(N-methyl-N-(2-pyridyl)amino]ethoxy]benzyl]thiazolidine-2,4-dione] as the compound, how does the “suppression of progesterone production, dose-response” value (“suppression … dose-response” below) (porcine granulosa cells [1]) read?
A: Its value is “suppressed progesterone production by porcine granulosa cells in a dose-dependent fashion”.

Q: And the “binding to the PPRE in granulosa cell nuclear extracts” value (PPARγ [2])?
A: Its value is “increased binding to the PPRE”.

Q: With `CCc1ccc(CCOc2ccc(CC3SC(=O)NC3=O)cc2)nc1` (centres unmarked) [pioglitazone, 5-[4-[2-(5-ethylpyridin-2-yl)ethoxyl]benzyl]thiazolidine-2,4-dione] as the compound, how does the “suppression … dose-response” value (porcine granulosa cells [1]) read?
A: The value was “suppressed progesterone production by porcine granulosa cells in a dose-dependent fashion”.

Q: Which “concentrations causing a loss of cell viability” value (NWTb3 cells) does the source give for `Cc1c(C)c2c(c(C)c1O)CCC(C)(COc1ccc(CC3SC(=O)NC3=O)cc1)O2` (single isomer, unassigned; (+)) [Troglitazone, (+)-5[[4-[(3,4-dihydro-6-hydroxy-2,5,7,8-tetramethyl-2H-1-benzopyran-2-yl)methoxy]phenyl]methyl]-2,4thiazolidinedione] here?
A: The value was no less than 1.0 µg/mL.

Q: And the “suppression of progesterone at single concentration” value (porcine granulosa cells [1]; 5 μg ml, 24 h (FIG. 7B))?
A: Its value is “suppression of progesterone in these cells occurred”.

Q: And the “time at which progesterone production was suppressed” value (porcine granulosa cells [1]; 1 or 10 μg ml, up to 24 h (FIG. 2))?
A: The value was no less than 4 h.

Q: What about the “effect of concentration on time of onset of suppression” value (porcine granulosa cells [1]; 1 vs 10 μg ml (FIG. 2)) of the same compound?
A: The value was “did not affect the time of onset of suppression”.

Q: What about the “potency at suppressing progesterone production relative to the other thiazolidinediones” value (porcine granulosa cells [1]; 24 h dose-response (FIG. 1)) of the same compound?
A: The value was “more potent at suppressing progesterone production than 2 other drugs”.

Q: And the “progesterone production in the presence of 25-OH cholesterol” value (porcine granulosa cells [1]; co-treatment with 25-OH cholesterol 30 μg ml, Troglitazone 1 and 10 μg ml, 24 h (FIG. 4))?
A: Its value is “suppressed progesterone production”.

Q: What about the “suppression … dose-response” value (porcine granulosa cells [1]) of the same compound?
A: Its value is “suppressed progesterone production by porcine granulosa cells in a dose-dependent fashion”.

Q: What about the “women with ovulatory menses” value ([3]; 25 women studied) of the same compound?
A: The value was 2 of the 25.

Q: What about the insulin resistance [3] of the same compound?
A: The insulin resistance was “reduced”.

Q: What about the “total protein concentrations versus control” value (porcine granulosa cells [4]; Troglitazone treatment groups vs control) of the same compound?
A: Its value is “lower”.

Q: What about the “DNA content versus control” value (porcine granulosa cells [4]; Troglitazone-treated vs control cells) of the same compound?
A: The value was “not a significant decrease in DNA content”.

Q: What about the “mRNA concentrations of P450scc” value (P450scc) of the same compound?
A: The value was “did not suppress mRNA concentrations of P450scc”.

Q: And the cell viability (MCF-7 cells)?
A: The cell viability was “decreased only with high concentrations”.

Q: And the “concentrations causing a loss of cell viability” value (HGL5 cells [5])?
A: Its value is no less than 0.5 µg·mL.

Q: And the cell viability (porcine granulosa cells [6])?
A: Its cell viability is “not a decrease in cell viability”.

Q: What about the “progesterone production at single concentration” value (HGL5 cells [7]; 30 μg ml) of the same compound?
A: The value was “inhibited progesterone production”.

Q: What about the “biphasic response at lower concentrations” value (HGL5 cells [7]; HGL5, 48 h (FIG. 8)) of the same compound?
A: Its value is “lower concentrations actually increasing progesterone production”.

Q: What about the “concentrations at which progesterone production was suppressed” value (HGL5 cells [7]; HGL5, 48 h (FIG. 8)) of the same compound?
A: The value was “greater than 10 μg”.

Q: Which PPARγ-dependent adipogenesis (PPARγ [8]) does the source give for `CCCCC/C=C/C=C1/C(=O)C=C[C@@H]1C/C=C\CCCC(=O)O` [15d-PGJ2, 15-deoxy-delta^12, 14-prostaglandin J2] here?
A: The PPARγ-dependent adipogenesis was “activates PPARγ-dependent adipogenesis”.

Q: What about the PPARα activation (PPARα) of the same compound?
A: Its PPARα activation is “activated PPARα only at high concentrations”.
